Literature values as cited in patent US6713027B2, “Ozonator for sterilizing, decontaminating, disinfecting, and/or sanitizing surgical instruments” (Electroclave, priority 2001, dated 2004).

Test system: pathogenic bacteria and viruses
Details: in water; compared with chlorine

For `O=[O+][O-]` [O3, ozone], the “rate of eliminating pathogenic bacteria and viruses from water relative to Cl (chlorine)” value is listed as 3,125 times.
